Assays:
Type in all cases: in vivo
[1] = system: palmer (palmer amaranth, palmer pigweed, Amaranthus palmeri); assay: Test A postemergence application, visual injury rating 0-100; details: Postemergence
How it was run: (§1)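 Preemergence directed soil spray or postemergence spray (2-10 cm, 1-2 leaf); loam/sand mix; compound in non-phytotoxic solvent + surfactant. Greenhouse, 10 d. Visual injury vs untreated, 0 = none, 100 = complete control.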

[2] = system: horseweed (Erigeron canadensis); assay: as above; details: Postemergence
How it was run: as §1

[3] = system: oat, wild (wild oat, Avena fatua); assay: as above; details: Postemergence
How it was run: as §1

[4] = system: corn (Zea mays); assay: as above; details: Postemergence
How it was run: as §1

[5] = system: green foxtail (Setaria viridis); assay: as above; details: Postemergence
How it was run: as §1

[6] = system: soybean (Glycine max); assay: as above; details: Postemergence
How it was run: as §1

[7] = system: kochia (Bassia scoparia); assay: as above; details: Postemergence
How it was run: as §1

[8] = system: ragweed (common ragweed, Ambrosia artemisiifolia); assay: as above; details: Postemergence
How it was run: as §1

[9] = system: blackgrass (Alopecurus myosuroides); assay: as above; details: Postemergence
How it was run: as §1

[10] = system: barnyardgrass (Echinochloa crus-galli); assay: as above; details: Postemergence
How it was run: as §1

[11] = system: wheat (Triticum aestivum); assay: as above; details: Postemergence
How it was run: as §1

[12] = system: ryegrass, Italian (italian ryegrass, Lolium multiflorum); assay: as above; details: Postemergence
How it was run: as §1

[13] = system: galium (catchweed bedstraw, Galium aparine); assay: as above; details: Postemergence
How it was run: as §1

[14] = system: barnyardgrass (Echinochloa crusgalli); assay: Test B flooded paddy test, visual plant response rating 0-100; details: 250 g ai/ha, Flood, applied to paddy water, evaluated after 13 days
How it was run: (§2)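 Each species was raised to two leaves before flooding to a 3 cm depth and dosing the water with compound. Injury was assessed by eye after 13 days under greenhouse conditions.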

[15] = system: sedge, umbrella (small-flower umbrella sedge, Cyperus difformis); assay: as above; details: 250 g ai/ha, Flood, applied to paddy water, evaluated after 13 days
How it was run: as §2

[16] = system: ducksalad (Heteranthera limosa); assay: as above; details: 250 g ai/ha, Flood, applied to paddy water, evaluated after 13 days
How it was run: as §2

[17] = system: rice (Oryza sativa); assay: as above; details: 250 g ai/ha, Flood, applied to paddy water, evaluated after 13 days
How it was run: as §2

[18] = system: palmer (palmer amaranth, palmer pigweed, Amaranthus palmeri); assay: Test A preemergence soil spray, visual injury rating 0-100; details: 10 days, 0 = no effect, 100 = complete control
How it was run: as §1

[19] = system: oat, wild (wild oat, Avena fatua); assay: as above; details: 10 days, 0 = no effect, 100 = complete control
How it was run: as §1

[20] = system: corn (Zea mays); assay: as above; details: 10 days, 0 = no effect, 100 = complete control
How it was run: as §1

[21] = system: green foxtail (Setaria viridis); assay: as above; details: 10 days, 0 = no effect, 100 = complete control
How it was run: as §1

[22] = system: soybean (Glycine max); assay: as above; details: 10 days, 0 = no effect, 100 = complete control
How it was run: as §1

[23] = system: kochia (Bassia scoparia); assay: as above; details: 10 days, 0 = no effect, 100 = complete control
How it was run: as §1

[24] = system: ragweed (common ragweed, Ambrosia artemisiifolia); assay: as above; details: 10 days, 0 = no effect, 100 = complete control
How it was run: as §1

[25] = system: blackgrass (Alopecurus myosuroides); assay: as above; details: 10 days, 0 = no effect, 100 = complete control
How it was run: as §1

[26] = system: barnyardgrass (Echinochloa crus-galli); assay: as above; details: 10 days, 0 = no effect, 100 = complete control
How it was run: as §1

[27] = system: wheat (Triticum aestivum); assay: as above; details: 10 days, 0 = no effect, 100 = complete control
How it was run: as §1

[28] = system: ryegrass, Italian (italian ryegrass, Lolium multiflorum); assay: as above; details: 10 days, 0 = no effect, 100 = complete control
How it was run: as §1

[29] = 31 g ai/ha, greenhouse 10 days, 0 no effect, 100 complete control
[30] = 125 g ai/ha, 10 days, 0 is no effect, 100 is complete control

CC(C)COC(=O)C1C=CC(NC(=O)C2(C)CN(c3cc(Cl)cc(Cl)c3)C(=O)O2)C1 (stereo not shown) [Compound 66]
Amaranth, Palmer / Pigweed, Palmer plant response rating (0 to 100 scale) [1, 29]: 90 | Amaranth, Palmer / Pigweed, Palmer plant response rating (0 to 100 scale) [1, 30]: 90 | Horseweed plant response rating (0 to 100 scale) [2, 29]: 40 | Horseweed plant response rating (0 to 100 scale) [2, 30]: 70 | Oat, Wild plant response rating (0 to 100 scale) [3, 29]: 90 | Oat, Wild plant response rating (0 to 100 scale) [3, 30]: 90 | Corn plant response rating (0 to 100 scale) [4, 29]: 90 | Corn plant response rating (0 to 100 scale) [4, 30]: 100 | Foxtail, Green plant response rating (0 to 100 scale) [5, 29]: 70 | Foxtail, Green plant response rating (0 to 100 scale) [5, 30]: 90 | Soybean plant response rating (0 to 100 scale) [6, 29]: 80 | Soybean plant response rating (0 to 100 scale) [6, 30]: 80 | Kochia plant response rating (0 to 100 scale) [7, 29]: 70 | Kochia plant response rating (0 to 100 scale) [7, 30]: 80 | Ragweed plant response rating (0 to 100 scale) [8, 29]: 70 | Ragweed plant response rating (0 to 100 scale) [8, 30]: 80 | Blackgrass plant response rating (0 to 100 scale) [9, 29]: 90 | Blackgrass plant response rating (0 to 100 scale) [9, 30]: 90 | Barnyardgrass plant response rating (0 to 100 scale) [10, 29]: 100 | Barnyardgrass plant response rating (0 to 100 scale) [10, 30]: 100 | Wheat plant response rating (0 to 100 scale) [11, 29]: 90 | Wheat plant response rating (0 to 100 scale) [11, 30]: 90 | Ryegrass, Italian plant response rating (0 to 100 scale) [12, 29]: 70 | Ryegrass, Italian plant response rating (0 to 100 scale) [12, 30]: 100 | Galium plant response rating (0 to 100 scale) [13, 29]: 70 | Galium plant response rating (0 to 100 scale) [13, 30]: 80 | Plant response rating, Barnyardgrass (0 to 100 scale, 0 is no effect and 100 is complete control) [14]: 75 | Plant response rating, Sedge, Umbrella (0 to 100 scale, 0 is no effect and 100 is complete control) [15]: 100 | Plant response rating, Ducksalad (0 to 100 scale, 0 is no effect and 100 is complete control) [16]: 95 | Plant response rating, Rice (0 to 100 scale, 0 is no effect and 100 is complete control) [17]: 15 | Amaranth, Palmer plant response rating (0-100) ([18]; 31 g ai/ha): 90 | Amaranth, Palmer plant response rating (0 to 100 scale) ([18]; 125 g ai/ha): 100 | Oat, Wild plant response rating (0-100) ([19]; 31 g ai/ha): 0 | Oat, Wild plant response rating (0 to 100 scale) ([19]; 125 g ai/ha): 90 | Corn plant response rating (0-100) ([20]; 31 g ai/ha): 0 | Corn plant response rating (0 to 100 scale) ([20]; 125 g ai/ha): 60 | Foxtail, Green plant response rating (0-100) ([21]; 31 g ai/ha): 20 | Foxtail, Green plant response rating (0 to 100 scale) ([21]; 125 g ai/ha): 100 | Soybean plant response rating (0-100) ([22]; 31 g ai/ha): 0 | Soybean plant response rating (0 to 100 scale) ([22]; 125 g ai/ha): 0 | Kochia plant response rating (0-100) ([23]; 31 g ai/ha): 0 | Kochia plant response rating (0 to 100 scale) ([23]; 125 g ai/ha): 30 | Ragweed plant response rating (0-100) ([24]; 31 g ai/ha): 0 | Ragweed plant response rating (0 to 100 scale) ([24]; 125 g ai/ha): 70 | Blackgrass plant response rating (0-100) ([25]; 31 g ai/ha): 30 | Blackgrass plant response rating (0 to 100 scale) ([25]; 125 g ai/ha): 80 | Barnyardgrass plant response rating (0-100) ([26]; 31 g ai/ha): 50 | Barnyardgrass plant response rating (0 to 100 scale) ([26]; 125 g ai/ha): 90 | Wheat plant response rating (0-100) ([27]; 31 g ai/ha): 10 | Wheat plant response rating (0 to 100 scale) ([27]; 125 g ai/ha): 70 | Ryegrass, Italian plant response rating (0-100) ([28]; 31 g ai/ha): 50 | Ryegrass, Italian plant response rating (0 to 100 scale) ([28]; 125 g ai/ha): 90

— patent US20260285850A1, “SUBSTITUTED OXAZOLIDINONES AND IMIDAZOLINONES AS HERBICIDES” (FMC CORPORATION, priority 2023, published 2026)
